Laboratory results from patent US11278514B2, “Composition compromising dunnione as effective ingredient for prevention or alleviation of hair loss” (NADIANBIO LTD., priority 2018, dated 2022).

Experiments:
[1] = system: C57BL/6 mice having alopecia caused by cyclophosphamide; conditions: cyclophosphamide alone (150 mg/kg i.p.); day 18
Protocol: The day, on which the mice were hair-removed in Example 1, was set as day 0, and the animals were divided into the following groups: normal group (Control, 4 animals) in which only PBS is intraperitoneally injected on day 9; cyclophosphamide group (CYP, 6 animals) in which cyclophosphamide (150 mg/kg) is intraperitoneally injected on day 9; combination-treated group (CYP+Dunnione, 6 animals) in which dunnione is orally administered on a daily basis starting from 3 days prior to treatment with cyclophosphamide; and dunnione alone-treated group (Dunnione, 4 animals) in which only dunnione (20 mg/kg) is administered (FIG. 1).
The day, on which the mice were hair-removed in Example 1, was set as day 0, and the mice in each of the experimental groups described in Example 2 were sacrificed on day 18. Subsequently, the mouse dorsal skin was dissected parallel or perpendicular to the vertebral line, and removed. The removed skin was fixed with a Bouin's solution for 12 hours, subjected to dehydration, and embedded in paraffin. Then, the resulting product was prepared into 5-μm sections. The prepared sections were subjected to hematoxylin and eosin (H&E) staining, and histological changes in the skin in each experimental group were observed.

NQO1 knockout mice [2] = conditions: cyclophosphamide alone (150 mg/kg i.p.), until day 18
Protocol: (§1) The day, on which the NQO1 knockout mice were hair-removed according to Example 1, was set as day 0, and the animals were divided into the following experimental groups and used for experiments: normal group (Control, 4 animals) in which only PBS is intraperitoneally injected on day 9; cyclophosphamide group (CYP, 6 animals) in which cyclophosphamide (150 mg/kg) is intraperitoneally injected on day 9; combination-treated group (CYP+Dunnione, 6 animals) in which dunnione is orally administered on a daily basis starting from 3 days prior to treatment with cyclophosphamide; and dunnione alone-treated group (Dunnione, 4 animals) in which only dunnione (20 mg/kg) is administered (FIG. 1).

NQO1 knockout mice [3] = conditions: cyclophosphamide alone, day 18
Protocol: as §1
The day, on which the NQO1 knockout mice were hair-removed according to Example 1, was set as day 0, and the mice in each of the experimental groups described in Example 3 were sacrificed on day 18. Subsequently, the mouse dorsal skin was dissected parallel or perpendicular to the vertebral line, and removed. The removed skin was fixed with a Bouin's solution for 12 hours, subjected to dehydration, and embedded in paraffin. Then, the resulting product was prepared into 5-μm sections. The prepared sections were subjected to hematoxylin and eosin (H&E) staining, and histological changes in the skin in each experimental group were observed.

NAD^+ = assay: NAD+ and NADH concentrations and NAD+/NADH ratio in skin tissue, cyclophosphamide alopecia model; assay type: in vivo, mice; conditions: cyclophosphamide alone vs normal group; day 18
Protocol: Specifically, in order to quantify the NAD^+ and NADH concentrations in the skin tissue obtained from the animal model prepared by the method in Example 2, the skin tissue was tested with the analysis kit (E2ND-100) of BioAssay Systems according to the instruction manual, and then the NAD^+/NADH ratio was analyzed. First, 10 mg of skin tissue was collected from the animal model. Then, 100 μl of extraction solution for NAD^+ or NADH was added to the skin tissue and homogenized. Then, the homogenized skin tissue was subjected to heat treatment at 60° C. for 5 minutes. Neutralization was performed by addition of the same volume of the extraction solution, and then centrifugation was performed at 14,000 rpm for 5 minutes to obtain the supernatant. Then, a developing reagent was added to the supernatant. The NAD^+ and NADH concentrations were determined from the absorbance measured at a wavelength of 565 nm, and the NAD^+/NADH ratio was analyzed.

Sirt1 = Sirt1 activity in skin tissue (fluorescent Sirt1 detection kit), cyclophosphamide alopecia model; assay type: in vivo, mice; conditions: cyclophosphamide alone; day 18
Protocol: In addition, the skin tissue obtained from the animal model prepared by the method in Example 2 was homogenized. The homogenized skin tissue was tested with the fluorescent Sirt1 detection kit (BML-AK555-0001) of Enzo Life Sciences International, Inc. according to the instruction manual, and then Sirt1 activity was analyzed. 40 μg of the homogenized skin tissue was mixed with a reaction solution (Fluor de Lys-Sirt1, NAD+, buffer solution (25 mM Tris-HCl (pH8.0), 137 mM NaCl, 2.7 mM […], 1 mM MgCl2, and 1 mg/mL BSA)), and reaction was allowed to proceed at a temperature of 37° C. for 1 hour. Then, additional reaction was allowed to proceed for 5 minutes under a condition in which a developer is added. In order to check the final Sirt1 activity, readings were measured for the reaction solution using the CytoFluor series 4000 fluorometer (PerSeptive Biosystems, Inc., USA) with the excitation wavelength set to 360 nm and the emission to 460 nm.

Sirt1 protein = assay: Expression level of Sirt1 protein in skin tissue (western blot), cyclophosphamide alopecia model; assay type: in vivo, mice; conditions: cyclophosphamide alone; day 18
Protocol: (§2) In the cyclophosphamide-induced alopecia mouse model of Example 2, expression level of Sirt1 protein and acetylation reaction of the target proteins thereof, NF-κB p65 and p53, were identified on the skin tissue obtained on day 18 after hair removal.
(§3) Specifically, 10 mg of the skin tissue obtained from the animal model prepared by the method in Example 2 was homogenized by addition of a lysis solution (RIPA lysis buffer). Then, centrifugation was performed at 14,000 rpm for 10 minutes. The protein concentration in the supernatant was quantified with a bovine serum albumin (BSA) standard solution. The skin tissue protein was used in an amount of 40 μg per test solution. First, the homogenized skin tissue was mixed with a sample solution (Bio-Rad, 161-0747) and inactivated at a temperature of 95° C. for 5 minutes. Thereafter, the protein was separated by a sodium dodecyl sulfate-polyacrylamide gel electrophoresis (SDS-PAGE) method, and then transferred to a nitrocellulose membrane. Treatment with anti-Sirt1 antibody (Abcam), anti-acetyl NF-κB p65 antibody and anti-acetyl p53 antibody (Cell Signaling Technologies), and anti-β-actin antibody (Santa Cruz Biotechnology) as primary antibodies were performed, and reaction was allowed to proceed. […]

NF-κB p65 = assay: Acetylation of NF-κB p65 in skin tissue (western blot), cyclophosphamide alopecia model; assay type: in vivo, mice; conditions: cyclophosphamide alone; day 18
Protocol: as §2, §3

p53 = assay: Acetylation of p53 in skin tissue (western blot), cyclophosphamide alopecia model; assay type: in vivo, mice; conditions: cyclophosphamide alone; day 18
Protocol: as §2, §3

patients = conditions: cancer patients; Batchelor D., Eur J Cancer Care, 2001; cited from earlier work

## O=P1(N(CCCl)CCCl)NCCCO1 (stereo not shown) [cyclophosphamide, reference compound]
[1]
  development of hair follicles and inner root sheaths (histology): the hair follicles have poorly developed or the inner root sheaths have insufficiently developed
NQO1 knockout mice [2]
  hair growth, visual observation of skin: hair hardly grew until day 18 after hair removal
NQO1 knockout mice [3]
  development of hair follicles and inner root sheaths (histology): the hair follicles have poorly developed or the inner root sheaths have insufficiently developed
NAD^+
  NAD^+ concentration in skin tissue: decreased
  NAD^+/NADH ratio in skin tissue: decreased
Sirt1
  Sirt1 activity in skin tissue: decreased
Sirt1 protein
  expression level of Sirt1 protein in skin tissue: decreased
NF-κB p65
  acetylation of NF-κB p65 in skin tissue: increased
p53
  acetylation of p53 in skin tissue: increased
patients
  patients in whom the agent causes CIA: ≥ 60%
